The results in this text go back to paper PMC2956650, “The Dopamine Metabolite 3-Methoxytyramine Is a Neuromodulator” (PLoS ONE, 2010).

The target in the assay is T1, human trace amine associated receptor 1 (hTAAR1) (Homo sapiens, UniProt Q96RJ0).
T1 construct: gene TAAR1; hTAAR1 with the first nine amino acids of the β2-adrenergic receptor added at N-terminus
T1 sequence (Q96RJ0 1-339): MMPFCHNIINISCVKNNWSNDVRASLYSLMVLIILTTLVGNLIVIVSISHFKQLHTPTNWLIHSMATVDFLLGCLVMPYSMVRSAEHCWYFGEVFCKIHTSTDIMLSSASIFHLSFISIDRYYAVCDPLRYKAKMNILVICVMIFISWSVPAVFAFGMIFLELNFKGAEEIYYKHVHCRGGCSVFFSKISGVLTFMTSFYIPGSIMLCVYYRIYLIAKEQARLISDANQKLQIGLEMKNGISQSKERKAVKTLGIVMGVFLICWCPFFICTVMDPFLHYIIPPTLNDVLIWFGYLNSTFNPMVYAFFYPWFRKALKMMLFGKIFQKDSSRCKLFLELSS
Kind of assay: [3H]-cAMP accumulation (column assay) in HEK-293 cells transfected with hTAAR1; no effect in mock cells. Type of assay: cell-based.

Read-outs that look alike come from different tables or passages of the source.

In general, EC50 refers to the midpoint of the concentration-response curve. Compound `COc1cc(CCN)ccc1O` [3-MT, 3-methoxytyramine] registered a 50% effective concentration (EC50) of 700 ± 180 nM. `NCCc1ccc(O)cc1` [tyramine]: for the setting “read-out: EC50”, the EC50 is 320 ± 100 nM.
